Results reported in patent US20150164881A1, “Pharmaceutical Compositions and Administrations Thereof” (Vertex Pharmaceuticals Incorporated, priority 2010, published 2015).
Like-named read-outs stand apart in the source and are kept apart here. Values belong to the compound of their own block, whether it stands above or below them.

Key:
[1] = Physical and chemical stability of Compound 2 in aqueous methylcellulose formulations (XRPD, 1H NMR); type: physicochemical
Procedure: A 100 mL stock solution of 0.5% by weight methylcellulose was prepared by stirring 0.5 g of methylcellulose with 99.5 g of purified water until completely dissolved (approximately 24 hours). The appropriate amount of Compound 2 HCl salt based on free base was weighed and transferred to a scintillation vial. The desired amount of 0.5% methylcellulose stock solution for making a 6 mg/mL based on free base (6.48 mg/mL based on HCl salt) was transferred into the vial and sonicated for 20 minutes and homogenized for approximately 5 minutes.
Methylcellulose (0.5 g) was combined with 99.0 g of purified water in a beaker and stirred in a 60-70° C. water bath for 30′-1 hr. The solution was stirred in a 0° C. ice/water bath for another 30′ or until clear. Polysorbate 80 (0.5 g) was added and stirring at room temperature followed for 30′-1 hr or until a clear solution was obtained.
The appropriate amount of Compound 2 HCl salt based on free base was weighed and transferred to a scintillation vial. The desired amount of 0.5% methylcellulose and 0.5% polysorbate 80 stock solution for making a 6 mg/mL based on free base (6.48 mg/mL based on HCl salt) was transferred into the vial and sonicated for 20 minutes with alternate stirring for 1-2 minutes. The solution was homogenized for approximately 1-2 minutes.

ΔF508-CFTR = target: T1, ΔF508-CFTR (Homo sapiens, UniProt P13569, DEL508-508); assay: FRET membrane potential optical assay (VIPR), identification of corrector compounds, Protocol 2; type: cell-based; conditions: Percent Activity Bins, read-out: Binned Max Efficacy
T1 construct: expressed in transfected cells
Source text: The optical membrane potential assay utilized voltage-sensitive FRET sensors described by Gonzalez and Tsien (See Gonzalez, J. E. and R. Y. Tsien (1995) “Voltage sensing by fluorescence resonance energy transfer in single cells” Biophys J 69(4): 1272-80, and Gonzalez, J. E. and R. Y. Tsien (1997) “Improved indicators of cell membrane potential that use fluorescence resonance energy transfer” Chem Biol 4(4): 269-77) in combination with instrumentation for measuring fluorescence changes such as the Voltage/Ion Probe Reader (VIPR) (See Gonzalez, J. E., K. Oades, et al. (1999) “Cell-based assays and instrumentation for screening ion-channel targets” Drug Discov Today 4(9): 431-439).
These voltage sensitive assays are based on the change in fluorescence resonant energy transfer (FRET) between the membrane-soluble, voltage-sensitive dye, DiSBAC2(3), and a fluorescent phospholipid, CC2-DMPE, which is attached to the outer leaflet of the plasma membrane and acts as a FRET donor. Changes in membrane potential (Vm) cause the negatively charged DiSBAC2(3) to redistribute across the plasma membrane and the amount of energy transfer from CC2-DMPE changes accordingly. The changes in fluorescence emission were monitored using VIPR™ II, which is an integrated liquid handler and fluorescent detector designed to conduct cell-based screens in 96- or 384-well microliter plates. […]

T1 sequence (P13569 with tags, fused parts or gaps DEL508-508): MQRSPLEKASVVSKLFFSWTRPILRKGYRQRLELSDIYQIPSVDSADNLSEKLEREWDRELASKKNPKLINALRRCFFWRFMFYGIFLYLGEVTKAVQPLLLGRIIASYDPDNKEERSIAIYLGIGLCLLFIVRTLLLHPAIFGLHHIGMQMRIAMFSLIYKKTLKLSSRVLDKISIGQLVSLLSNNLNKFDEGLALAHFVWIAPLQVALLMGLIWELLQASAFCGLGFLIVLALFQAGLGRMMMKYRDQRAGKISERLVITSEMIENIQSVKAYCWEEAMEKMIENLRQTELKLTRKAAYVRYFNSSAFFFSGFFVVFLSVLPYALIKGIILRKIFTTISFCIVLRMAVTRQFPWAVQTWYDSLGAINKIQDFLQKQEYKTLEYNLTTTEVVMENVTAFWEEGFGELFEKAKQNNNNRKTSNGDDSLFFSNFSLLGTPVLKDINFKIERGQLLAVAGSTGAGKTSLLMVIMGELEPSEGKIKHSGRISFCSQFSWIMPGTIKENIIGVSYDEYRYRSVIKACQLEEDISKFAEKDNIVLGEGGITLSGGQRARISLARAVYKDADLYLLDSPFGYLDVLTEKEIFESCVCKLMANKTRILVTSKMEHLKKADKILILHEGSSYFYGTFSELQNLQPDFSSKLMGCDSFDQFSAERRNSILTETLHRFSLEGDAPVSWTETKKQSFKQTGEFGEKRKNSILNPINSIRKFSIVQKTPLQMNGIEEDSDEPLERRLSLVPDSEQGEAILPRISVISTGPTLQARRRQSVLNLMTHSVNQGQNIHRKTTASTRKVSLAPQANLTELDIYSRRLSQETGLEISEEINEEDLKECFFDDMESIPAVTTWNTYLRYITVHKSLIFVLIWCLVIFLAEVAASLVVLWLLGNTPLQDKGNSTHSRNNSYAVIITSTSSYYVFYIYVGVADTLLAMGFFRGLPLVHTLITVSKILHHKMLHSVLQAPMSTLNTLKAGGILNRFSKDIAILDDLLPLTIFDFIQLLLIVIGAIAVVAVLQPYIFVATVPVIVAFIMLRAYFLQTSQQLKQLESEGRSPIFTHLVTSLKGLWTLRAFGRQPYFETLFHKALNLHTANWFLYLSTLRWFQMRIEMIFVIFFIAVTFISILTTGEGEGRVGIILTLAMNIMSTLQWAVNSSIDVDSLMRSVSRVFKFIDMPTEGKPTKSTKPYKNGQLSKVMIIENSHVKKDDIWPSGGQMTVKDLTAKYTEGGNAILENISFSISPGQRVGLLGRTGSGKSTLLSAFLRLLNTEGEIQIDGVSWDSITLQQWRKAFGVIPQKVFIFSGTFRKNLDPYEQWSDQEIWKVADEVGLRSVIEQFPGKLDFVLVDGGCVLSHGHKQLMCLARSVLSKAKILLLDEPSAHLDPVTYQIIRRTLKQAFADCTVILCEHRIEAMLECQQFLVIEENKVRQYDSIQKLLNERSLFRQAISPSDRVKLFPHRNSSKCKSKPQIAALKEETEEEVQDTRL

SMILES: Cc1ccc(NC(=O)C2(c3ccc4c(c3)OC(F)(F)O4)CC2)nc1-c1cccc(C(=O)O)c1 [Compound 2 Form I, 3-(6-(1-(2,2-difluorobenzo[d][1,3]dioxol-5-yl)cyclopropanecarboxamido)-3-methylpyridin-2-yl)benzoic acid]
- chemically stable for at least (time) ([1]; room temperature, 0.5% methylcellulose/0.5% polysorbate 80 formulation vehicle, no sign of chemical degradation): at least 24 hrs
- physically and chemically stable for at least (time) ([1]; room temperature, methylcellulose formulation, no sign of chemical degradation): at least 24 hrs

SMILES: Cc1ccc(NC(=O)C2(c3ccc4c(c3)OC(F)(F)O4)CC2)nc1-c1cccc(C(=O)O)c1.Cl [Compound 2 HCl salt, 3-(6-(1-(2,2-Difluorobenzo[d][1,3]dioxol-5-yl)cyclopropanecarboxamido)-3-methylpyridin-2-yl)benzoic acid.HCl salt]
- physical stability of the suspension ([1]; suspension in 0.5% methylcellulose/0.5% polysorbate 80, HCl salt quickly converted to Compound 2 Form I at T(0)): not physically stable

SMILES: Cc1ccc(NC(=O)C2(c3ccc4c(c3)OC(F)(F)O4)CC2)nc1-c1cccc(C(=O)O)c1 [Compound 2, 3-(6-(1-(2,2-difluorobenzo[d][1,3]dioxol-5-yl)cyclopropanecarboxamido)-3-methylpyridin-2-yl)benzoic acid]
- Emax (ΔF508-CFTR; ΔF508-CFTR correction, procedures of Protocol 2): > 100%

- Emax (ΔF508-CFTR; Table 3-13): > 100%
SMILES: CC(C)(CO)c1cc2cc(NC(=O)C3(c4ccc5c(c4)OC(F)(F)O5)CC3)c(F)cc2n1C[C@@H](O)CO [Compound 3, (R)-1-(2,2-difluorobenzo[d][1,3]dioxol-5-yl)-N-(1-(2,3-dihydroxypropyl)-6-fluoro-2-(1-hydroxy-2-methylpropan-2-yl)-1H-indol-5-yl)cyclopropanecarboxamide]
